Patent publication US7892754B2, “Hepatitis B virus pre-S1 derived synthetic polypeptides and uses thereof” (priority 2001, dated 2011)
Ends that are not written are not given here. Peptide text beside a SMILES is read from it. * marks the point of attachment. Myristoyl = CCCCCCCCCCCCCC(=O)*

Experiments:
HBV [1] = assay: Polypeptide competition assay: inhibition of HBV infection of human hepatocyte cultures, HBsAg ELISA in supernatant; type: cell-based; conditions: for effect on HBV infectivity (HBsAg secretion): FIG. 1; for inhibitory activity against HBV infection, comparison of C-terminally truncated peptides: 0.8 to 800 nM
From the text: (§1) Fragments of normal adult human liver were obtained from patients undergoing hepatic resection for liver metastases (the fragments were taken at a distance from the metastasis in macroscopically normal liver). Access to this biopsy material was in agreement with French laws and satisfied the requirements of the French National Ethics Committee. Hepatocytes were isolated by the procedure of Guguen-Guillouzo and Guillouzo and cultured in H medium supplemented with 3.5×10^−6 M hydrocortisone hemisuccinate, 2 mM L-glutamine, 50 mg of gentamicin per litre, 2% dimethyl sulfoxide, 5% adult human serum, and 5% FCS. Three days after seeding, the cells were infected.
As an infectious inoculum, a 50-fold concentrated culture medium of HepG2 clone 2.2.15 cells was used, because of an unlimited supply and a constant quality.
It was prepared as described previously. Differentiated cells were incubated with the concentrated infectious source, 10-fold diluted in culture medium supplemented with 5% PEG 8000 (Sigma), for 20 h at 37° C. as described previously (Gripon et al., 1988; Gripon et al., 1993). Control cultures were incubated with 5% PEG and 25% FCS diluted in phosphate-buffered saline (PBS) instead of the infectious source. At the end of the incubation, cells were washed three times with the culture medium and maintained in the presence of 2% DMSO and 5×10^−5 M hydrocortisone hemisuccinate and harvested at indicated times.
(§2) Polypeptide competition assays were performed by pre-incubating cells with the analyzed polypeptide for 30 min, at 37° C., prior to the addition of the infectious source.
HBsAg was detected in the medium by an ELISA kit (Monolisa AgHBs plus) obtained from Bio-Rad Laboratories. Values are expressed in ng/ml of supernatant or percent of control (absence of peptide).

DHBV [2] = assay: In vivo DHBV infection inhibition in ducks (Dot Blot of viral DNA, Western Blot of L protein in serum); conditions: for L protein of DHBV in serum (Western Blot): 35 days post-infection, FIG. 6; for viral DNA in serum (Dot Blot): day 28 post-infection; for viral DNA in serum (Dot Blot) / viremia (Dot Blot of viral DNA in serum): FIG. 5; for viremia (Dot Blot of viral DNA in serum): ducks injected simultaneously with DHBV and peptide, days 9 and 15 post-infection
Description: Ducks are simultaneously injected with DHBV and duck preS Myr 2-41 (DpreS2-41^myr), heron preS Myr 2-44 (HepreS2-44^myr), human preS Myr 2-68 (HupreS2-68^myr), duck preS Myr 2-21 (DpreS2-21^myr) or ddH2O. The viremia of infected animals is assessed by Dot Blot analysis of viral DNA, 5, 9, 15 and 28 days post-infection.

DHBV [3] = assay: In vitro DHBV infection of primary duck hepatocytes; type: cell-based
HBV [4] = assay: Inhibition of HBV infection of human hepatocytes, RNA analysis (Northern blot); type: cell-based; conditions: myristoylation and C-terminal truncation of pre-S1 peptides
From the text: as §1
It was prepared as described previously. Differentiated cells were incubated with the concentrated infectious source, 10-fold diluted in culture medium supplemented with 5% PEG 8000 (Sigma), for 20 h at 37° C. as described previously (Gripon et al., 1988; Gripon et al., 1993). […]
as §2
Total cellular RNA was extracted by Total SV RNA kit (Promega, France), fractionated on a 1.5% agarose gel and analyzed by standard Northern blot procedure (Sambrook et al., 1989). […]

[5] = 1 μM peptide, HBsAg 14 days post-infection
[6] = 8 μM, HBsAg 8 days after infection, FIG. 3
[7] = 800 nM, HBsAg 7 days after infection, FIG. 2
[8] = doses lower than 800 nM, FIG. 2
[9] = HBsAg 7 days after infection, FIG. 2

“HBV PreS 1-78: non myristoylated peptide, pre-S1 amino acids 1 to 78 of Hepatitis B virus subtype ayw” was tested. Which “effect on HBV infectivity (HBsAg secretion)” value (shortened to “effect on HBV infectivity”) (HBV [1]; [5]) did it give?
Its value is “only a faint effect”.

What does the source list for `CCCCCCCCCCCCCC(=O)NCC(=O)N[C@@H](CCC(N)=O)C(=O)N[C@@H](Cc1c[nH]cn1)C(=O)N1CCC[C@H]1C(=O)N[C@@H](C)C(=O)N[C@@H](CCCCN)C(=O)N[C@@H](CO)C(=O)N[C@@H](CCSC)C(=O)N[C@@H](CC(=O)O)C(=O)N[C@H](C(=O)N[C@@H](CCCNC(=N)N)C(=O)N[C@@H](CCCNC(=N)N)C(=O)N[C@H](C(=O)N[C@@H](CCC(=O)O)C(=O)NCC(=O)NCC(=O)N[C@@H](CCC(=O)O)C(=O)N[C@H](C(=O)N[C@@H](CC(C)C)C(=O)N[C@@H](CC(C)C)C(=O)N[C@@H](CC(N)=O)C(=O)N[C@@H](CCC(N)=O)C(=O)N[C@@H](CC(C)C)C(=O)N[C@@H](C)C(=O)NCC(=O)N[C@@H](CCCNC(=N)N)C(=O)N[C@@H](CCSC)C(=O)N[C@H](C(=O)N1CCC[C@H]1C(=O)N[C@@H](CCCCN)C(=O)NCC(=O)N[C@H](C(=O)N[C@@H](CC(C)C)C(=O)N[C@H](C(=O)N[C@@H](Cc1c[nH]c2ccccc12)C(=O)N[C@@H](CO)C(=O)NCC(=O)N[C@@H](CCCCN)C(=O)N[C@@H](Cc1ccccc1)C(=O)N1CCC[C@H]1C(=O)O)[C@@H](C)O)[C@@H](C)O)[C@@H](C)CC)[C@@H](C)CC)[C@@H](C)CC)C(C)C` [DHBV Myr PreS 2-41] (Myristoyl-GQHPAKSMDVRRIEGGEILLNQLAGRMIPKGTLTWSGKFP-OH; C-terminus assumed)?
L protein of DHBV in serum (Western Blot) (DHBV [2]): not detected; viral DNA in serum (Dot Blot) (DHBV [2]): decreased or no longer detectable; viremia (Dot Blot of viral DNA in serum) (DHBV [2]): transitory viremia; inhibition of DHBV infection (DHBV [3]): strong inhibitor; activity on HBV infection (HBV [1]; text summary referring to table 1): complete absence of activity

For `CCCCCCCCCCCCCC(=O)NCC(=O)N[C@@H](CCC(N)=O)C(=O)N[C@@H](CC(N)=O)C(=O)N[C@@H](CC(C)C)C(=O)N[C@@H](CO)C(=O)N[C@H](C(=O)N[C@@H](CO)C(=O)N[C@@H](CC(N)=O)C(=O)N1CCC[C@H]1C(=O)N[C@@H](CC(C)C)C(=O)NCC(=O)N[C@@H](Cc1ccccc1)C(=O)N[C@@H](Cc1ccccc1)C(=O)N1CCC[C@H]1C(=O)N[C@@H](CC(=O)O)C(=O)N[C@@H](Cc1c[nH]cn1)C(=O)N[C@@H](CCC(N)=O)C(=O)N[C@@H](CC(C)C)C(=O)N[C@@H](CC(=O)O)C(=O)N1CCC[C@H]1C(=O)N[C@@H](C)C(=O)N[C@@H](Cc1ccccc1)C(=O)N[C@@H](CCCNC(=N)N)C(=O)N[C@@H](C)C(=O)N[C@@H](CC(N)=O)C(=O)N[C@H](C(=O)N[C@@H](C)C(=O)N[C@@H](CC(N)=O)C(=O)N1CCC[C@H]1C(=O)N[C@@H](CC(=O)O)C(=O)N[C@@H](Cc1c[nH]c2ccccc12)C(=O)N[C@@H](CC(=O)O)C(=O)N[C@@H](Cc1ccccc1)C(=O)N[C@@H](CC(N)=O)C(=O)N1CCC[C@H]1C(=O)N[C@@H](CC(N)=O)C(=O)N[C@@H](CCCCN)C(=O)O)[C@@H](C)O)[C@@H](C)O` [HBV Myr PreS 2-38], which “inhibitory activity against HBV infection” value (HBV [1]; [6]) is on record?
The value was “almost completely blocks HBV infection”.

With “HBV Myr PreS 2-68: myristoylated HBV pre-S1 peptide, amino acids 2-68” as the compound, how does the “infection of ducks with DHBV” value (DHBV [2]; FIGS. 5 and 6) read?
The value was “seems to delay but do not prevent infection”.

What about the “inhibitory activity against HBV infection” value (HBV [1]; [7]) of the same compound?
The value was “very efficient”.

What about the “inhibitory activity against HBV infection” value (HBV [1]; [8]) of the same compound?
The value was “less active”.

With “Myristoyl-GLNQSTFNPLGFFPSHQLDPLFKANAGSADWDKNPNKDPWPQAHDTA [WMHBV Myr PreS 2-48]” as the compound, how does the “comparative inhibitory activity towards HBV infection of human cells” value (HBV [1]; decreasing peptide concentrations, HBsAg day 10 post-infection, FIG. 4) read?
Its value is “nearly as efficient as the HBV derived peptide”.

What does the source list for `CCCCCCCCCCCCCC(=O)NCC(=O)N[C@@H](CCC(N)=O)C(=O)N[C@@H](CC(N)=O)C(=O)N[C@@H](CC(C)C)C(=O)N[C@@H](CO)C(=O)N[C@H](C(=O)N[C@@H](CO)C(=O)N[C@@H](CC(N)=O)C(=O)N1CCC[C@H]1C(=O)N[C@@H](CC(C)C)C(=O)NCC(=O)N[C@@H](Cc1ccccc1)C(=O)N[C@@H](Cc1ccccc1)C(=O)N1CCC[C@H]1C(=O)N[C@@H](CC(=O)O)C(=O)N[C@@H](Cc1c[nH]cn1)C(=O)N[C@@H](CCC(N)=O)C(=O)N[C@@H](CC(C)C)C(=O)N[C@@H](CC(=O)O)C(=O)N1CCC[C@H]1C(=O)N[C@@H](C)C(=O)N[C@@H](Cc1ccccc1)C(=O)N[C@@H](CCCNC(=N)N)C(=O)N[C@@H](C)C(=O)N[C@@H](CC(N)=O)C(=O)N[C@H](C(=O)N[C@@H](C)C(=O)O)[C@@H](C)O)[C@@H](C)O` [HBV Myr PreS 2-28]?
inhibition of HBV infection (HBV [1]; [7]): 50%; inhibitory activity against HBV infection (HBV [1]; [6]): almost completely blocks HBV infection; inhibitory activity against HBV infection, comparison of C-terminally truncated peptides (HBV [1]; [9]): largely less active

“HBV Myr PreS 2-78: myristoylated HBV pre-S1 peptide, amino acids 2-78” was tested. Which “inhibitory activity against HBV infection” value (HBV [1]; [7]) did it give?
The value was “very efficient”.

And the “effect on HBV infectivity” value (HBV [1]; [5])?
The value was “almost completely abolish it”.

And the “inhibitory activity against HBV infection” value (HBV [1]; [8])?
The value was “less active”.

And the “effect on HBV infectivity” value (HBV [1]; lower doses than 1 μM)?
The value was “partly inhibitory”.

Which “L protein of DHBV in serum (Western Blot)” value (DHBV [2]) does the source give for `CCCCCCCCCCCCCC(=O)NCC(=O)N[C@@H](CCC(N)=O)C(=O)N[C@@H](Cc1c[nH]cn1)C(=O)N1CCC[C@H]1C(=O)N[C@@H](C)C(=O)N[C@@H](CCCCN)C(=O)N[C@@H](CO)C(=O)N[C@@H](CCSC)C(=O)N[C@@H](CC(=O)O)C(=O)N[C@H](C(=O)N[C@@H](CCCNC(=N)N)C(=O)N[C@@H](CCCNC(=N)N)C(=O)N[C@H](C(=O)N[C@@H](CCC(=O)O)C(=O)NCC(=O)NCC(=O)N[C@@H](CCC(=O)O)C(=O)N[C@H](C(=O)N[C@@H](CC(C)C)C(=O)N[C@@H](CC(C)C)C(=O)O)[C@@H](C)CC)[C@@H](C)CC)C(C)C` [DpreS2-21^myr] (Myristoyl-GQHPAKSMDVRRIEGGEILL-OH) here?
The value was “not detected”.

And the “viral DNA in serum (Dot Blot)” value (DHBV [2])?
Its value is “decreased or no longer detectable”.

And the “viremia (Dot Blot of viral DNA in serum)” value (DHBV [2])?
Its value is “transitory viremia”.

What about the “in vitro inhibitory activity towards DHBV infection” value (DHBV [3]; primary duck hepatocytes) of the same compound?
The value was “no in vitro inhibitory activity”.

For `CCCCCCCCCCCCCC(=O)NCC(=O)N[C@@H](CCC(N)=O)C(=O)N[C@@H](CC(N)=O)C(=O)N[C@@H](CC(C)C)C(=O)N[C@@H](CO)C(=O)N[C@H](C(=O)N[C@@H](CO)C(=O)N[C@@H](CC(N)=O)C(=O)N1CCC[C@H]1C(=O)N[C@@H](CC(C)C)C(=O)NCC(=O)N[C@@H](Cc1ccccc1)C(=O)N[C@@H](Cc1ccccc1)C(=O)N1CCC[C@H]1C(=O)N[C@@H](CC(=O)O)C(=O)N[C@@H](Cc1c[nH]cn1)C(=O)N[C@@H](CCC(N)=O)C(=O)N[C@@H](CC(C)C)C(=O)N[C@@H](CC(=O)O)C(=O)N1CCC[C@H]1C(=O)N[C@@H](C)C(=O)N[C@@H](Cc1ccccc1)C(=O)N[C@@H](CCCNC(=N)N)C(=O)N[C@@H](C)C(=O)N[C@@H](CC(N)=O)C(=O)N[C@H](C(=O)N[C@@H](C)C(=O)N[C@@H](CC(N)=O)C(=O)N1CCC[C@H]1C(=O)N[C@@H](CC(=O)O)C(=O)N[C@@H](Cc1c[nH]c2ccccc12)C(=O)N[C@@H](CC(=O)O)C(=O)N[C@@H](Cc1ccccc1)C(=O)N[C@@H](CC(N)=O)C(=O)N1CCC[C@H]1C(=O)N[C@@H](CC(N)=O)C(=O)N[C@@H](CCCCN)C(=O)N[C@@H](CC(=O)O)C(=O)N[C@H](C(=O)N[C@@H](Cc1c[nH]c2ccccc12)C(=O)N1CCC[C@H]1C(=O)N[C@@H](CC(=O)O)C(=O)N[C@@H](C)C(=O)N[C@@H](CC(N)=O)C(=O)N[C@@H](CCCCN)C(=O)N[C@H](C(=O)NCC(=O)O)C(C)C)[C@@H](C)O)[C@@H](C)O)[C@@H](C)O` [HBV Myr PreS 2-48], which “inhibitory activity against HBV infection by RNA analysis” value (HBV [4]) is on record?
Its value is “highest inhibitory activity”.

And the “inhibitory activity against HBV infection, comparison of C-terminally truncated peptides” value (HBV [1]; [9])?
Its value is “highest inhibitory activity”.
